# Assay results: patent US12427183B2, “Methods of treating cancer, infectious disease, and autoimmune disease using chemokines” (New York Society for the Relief of the Ruptured and …, priority 2016, dated 2025)
# “Also recorded” adds a separate entry of the source.
# How the values were obtained:
# [1] = test system: PBMCs and pDC-depleted PBMCs; assay: IFN-α production in PBMCs and pDC-depleted PBMCs cultured with CpG and chemokines (ELISA); assay type: cell-based, human; settings: CpG 0.25 μM + chemokine 10 μg/ml
# Method: PBMCs were prepared using Ficoll-Paque density gradient (GE Healthcare) as previously described (Guiducci et al., 2008).
# pDCs were isolated from PBMCs by positive selection using BDCA4-MicroBead Kit as previously described (Guiducci et al., 2008). pDC-depleted PBMC were prepared by removing BDCA4-positive cells from PBMC using microbeads.
# (§1) 5×10^5 PBMCs or pDC-depleted PBMCs were cultured in 96 wells plate and stimulated with 0.25 μM CpG DNA with or without 10 μg/ml CXCL4, CXCL10, CXCL12 or CCL5. Freshly isolated pDCs were resuspended at 5×10^4 cells/100 μl RPMI 1640 medium (Gibco) and stimulated with the 0.25 μM CpG with/without 10 μg/ml indicated chemokines. The supernatant was harvested after 18 h and IFN-α was measured by ELISA.
# As shown above, CXCL4 can increase IFN-α production by TLR9-activated pDCs. Thus it was tested whether other chemokines may impact TLR9 signaling in pDCs. Purified pDCs were left unstimulated (Unstim.) or cultured with CpG (0.25 μM) alone or with the indicated chemokines at 10 μg/ml. IFN-α secretion was quantified by ELISA. Strikingly, it was observed that a set of chemokines, including CXCL4, CXL10, CXCL12 and CCL5, were able to superinduce TLR9-induced response by pDCs (FIG. 18A), while they had no effect when used alone (results not shown). […] This also raised questions as to the specificity and mechanism for this effect. First, as other DNA sensors have been described to induce IFN-α in immune cells (Barrat et al., 2016), it was tested to see if these chemokines altered the specificity of the CpGs for TLR9 and if the IFN-α response was restricted to pDCs. Total PBMCs or PBMCs where pDCs were depleted (PBMC-ΔpDCs) were incubated with CpGs and either CXCL4, CXCL10, CXCL12 or CCL5 and IFN-α production was quantified by ELISA.
# [2] = test system: purified pDCs from HDs or SSc patients; assay: IFN production by purified pDCs cultured with chemokine alone; assay type: cell-based, human; parameters: IFN production, CXCL4 alone: dose or concentration left out as unconfirmed
# Method: (§2) PBMCs were prepared using Ficoll-Paque density gradient from fresh blood under internal Institutional Review Board-approved protocols. pDCs were isolated as previously described (Guiducci et al. 2008) using either using negative depletion (Miltenyi Biotech) or following cell sorting using a BD IFNLUX cell sorter. As part of the gating strategy, neutrophils were excluded by FSC/SSC and cells positive for CD14 (CD3 and CD19 as well) were first excluded in order to prevent the contamination by TLR8 positive cells and then positively gated on HLA-DR, CD123 and BDCA4 to purify the pDCs. All BDCA4+ cells also express BDCA2 (results not shown). As a result, pure pDCs were obtained and no markers for neutrophils (CD66) or myeloid cells were found by PCR. B cells were FACS sorted as CD19+ and monocytes as CD14+ cells. PBMCs were depleted of pDCs using BDCA4 beads from Miltenyi. pDCs were cultured at 10,000-30,000 cells per well in a 96-round bottom plate and incubated at 37° C., 5% CO2 and 95% humidity. After 24 hours of culture, the supernatant was collected for ELISA or Mutiplex cytokine assays. In some culture conditions, cells were cultured with the PI3Kδ inhibitor, CAL-101 (Selleck chemicals) for 24 hours. The RNA-based TLR8 agonist, ORN8-L previously described (Guidacci et al. 2013) was synthetized by Chemgenes Corporation. For the TLR8 activation assay, pDCs were incubated in complete media alone, 200 μg/ml ORN8-L in complete media or 200 μg/ml ORN8-L+ 10 μg/ml CXCL4 (R&D systems).
# (§3) Supernatant from pDCs 24 hour culture was used for quantification of secreted chemokines and cytokines and measured with the use of an enzyme-linked immunosorbent assay (ELISA) or Luminex multiplex-beads immunoassay. CXCL4 ELISA (Ray Biotech) and IFNα, IP-10, IL-6, TNF Luminex assay (Millipore) was performed according to the manufacturer's protocol. Due to the variability in the number of cells obtained from the different patients and so we could compare the values across donors, all results were normalized to 10,000 cells. Of note, for all donors, pDCs were plated between 10,000-30,000 cells.
# (§4) When purified pDCs from HDs or SSc patients were cultured with CXCL4 alone ([…]), there was no effect on IFN production.
# as §1
# pDCs of HDs = assay: TLR gene expression in purified pDCs from HDs cultured with cytokines or chemokines (qPCR); assay type: cell-based, human; settings: 10 μg/ml each, 24 hours, pDCs from HDs
# Method: as §2
# PCR reactions were performed as described previously with 10 ng of cDNA (Barrat et al. 2005). In brief, RNA was extracted from cells using the Qiagen RNeasy Mini Kit. Quantity of RNA was measured by Nanodrop and high-capacity cDNA Reverse Transcription kit was used to generate 20-50 ng cDNA. Gene expression levels were calculated based on relative threshold cycle (Ct) values. This was done using the formula Relative Ct=100×1.8 (HSK-GENE), where HSK is the mean CT of duplicate housekeeping gene runs (we used Ubiquitin), GENE is the mean CT of duplicate runs of the gene of interest, and 100 is arbitrarily chosen as a factor to bring all values above 0.
# In particular, CXCL4 or IP-10 (two CXCR3B agonists) (10 μg/ml each) had no impact on TLR8 nor TLR7 and TLR9 expression levels in pDCs (FIG. 2C).
# [3] = test system: TLR8-mediated activation of SSc pDCs; assay: TLR8 activation assay of pDCs from SSc patients (ORN-8L with or without CXCL4); assay type: cell-based, human; settings: ORN-8L 200 μg/ml + CXCL4, 24 hours
# Method: as §2, §3, §4
# [4] = test system: TLR7-mediated activation of human B cells; assay: TLR7-mediated activation of human B cells (R848 with or without CXCL4); assay type: cell-based; settings: R848 0.15 μM + CXCL4 10 μg/ml
# Method: IL-6 and TNF gene levels were measured at 6 hour post culture by PCR, secretion of IL-6 and TNF were quantified using luminex and CD83 and CD80 expression was measured by flow cytometry at 24 hour post culture.
# [5] = test system: TLR9-mediated activation of pDCs; assay: TLR9-mediated activation of purified pDCs (CpG with or without chemokines), IFN-α ELISA; assay type: cell-based, human
# [6] = test system: TLR7-mediated activation of pDCs; assay type: cell-based, human; settings: CXCL4 10 μg/ml; TLR7 agonist at suboptimal dose; similar in HDs and SSc patients
substance,measurement,setting,value
"CXCL4: small chemokine of the CXC family, 70-amino acid protein released from alpha-granules of activated platelets",IFN-α production in absence of the pDCs (PBMC-ΔpDCs versus total PBMCs),[1],dramatic decrease
same,"IFN-α secretion by pDCs, chemokine used alone","[2]; chemokine 10 μg/ml without CpG, results not shown",no effect
same,"IFN production, CXCL4 alone","[2]; purified pDCs from HDs or SSc patients, CXCL4 alone",no effect; also recorded: did not induce
same,"TLR8, TLR7 and TLR9 expression levels in pDCs",pDCs of HDs,no impact
same,IL-6 production in response to TLR8,[3],no effect
same,TNF production in response to TLR8,[3],no effect
same,production of IFN-α in response to TLR8,[3]; p<0.001,significantly increased
same,production of IP-10 in response to TLR8,[3]; p<0.001,significantly increased
same,gene expression or secretion of IL-6 when activated by TLR7,[4],little effect
same,gene expression or secretion of TNF when activated by TLR7,[4],little effect
same,TLR9 response (IFN-α) of pDCs,"[5]; CXCL4 10 μg/ml, CpG-C 0.1 μM or CpG-B 0.25 μM, suboptimal doses, similar in HDs and SSc patients",drastically impacted
same,TLR9-induced response (IFN-α secretion) by pDCs,"[5]; CpG 0.25 μM, chemokine 10 μg/ml (Example 17)",superinduce
same,dependence of IFN-α superinduction on chemokine receptors,"[5]; with AMG487 100 nM, AMD3100 10 μg/ml, anti-CXCR7 11G8 10 μg/ml, J113863 1.5 μM or Vicriviroc 0.1 μM",independent of their chemokine receptors
same,TLR7 response (IFN-α) of pDCs,[6],little to no effect
